According to patent publication US11220503B2, “Phthalazine derivatives, preparation method, pharmaceutical composition and usage thereof” (Shanghai SIMR Biotech Co., Ltd., priority 2015, dated 2022):

Molecular target: T1, α5β3γ2 receptor (Homo sapiens, UniProt P18507+P31644)
T1 construct: expressed in transfected cells; host or cells: HEK-293 (stably transfected)
Assay: Supplementary data for cell level screening: new electrophysiology method (I. Lecker et al)
Type: cell-based
Conditions: for Inverse agonism efficacy(%): new method, CsCl intracellular solution, GABA 0.1˜0.3 CM, other procedures as previous method; for inverse agonism efficacy of the compound/α5IA inverse agonism efficacy: ratio to the α5IA reference run above in the table (r4 or r29)

T1 sequence (P31644 32-462): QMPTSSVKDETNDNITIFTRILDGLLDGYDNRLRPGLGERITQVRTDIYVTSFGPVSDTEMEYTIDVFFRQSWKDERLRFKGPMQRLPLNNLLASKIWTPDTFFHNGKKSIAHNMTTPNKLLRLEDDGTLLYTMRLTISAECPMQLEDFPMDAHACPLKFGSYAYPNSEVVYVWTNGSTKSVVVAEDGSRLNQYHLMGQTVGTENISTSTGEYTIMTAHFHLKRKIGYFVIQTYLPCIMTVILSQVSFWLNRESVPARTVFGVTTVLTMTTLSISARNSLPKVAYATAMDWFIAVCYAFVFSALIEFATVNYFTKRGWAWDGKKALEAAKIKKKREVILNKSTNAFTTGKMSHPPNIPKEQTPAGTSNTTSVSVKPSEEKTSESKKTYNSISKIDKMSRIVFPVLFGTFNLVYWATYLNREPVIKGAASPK
T1 sequence (P28472 26-473 isoform P28472-2 partner limits assumed): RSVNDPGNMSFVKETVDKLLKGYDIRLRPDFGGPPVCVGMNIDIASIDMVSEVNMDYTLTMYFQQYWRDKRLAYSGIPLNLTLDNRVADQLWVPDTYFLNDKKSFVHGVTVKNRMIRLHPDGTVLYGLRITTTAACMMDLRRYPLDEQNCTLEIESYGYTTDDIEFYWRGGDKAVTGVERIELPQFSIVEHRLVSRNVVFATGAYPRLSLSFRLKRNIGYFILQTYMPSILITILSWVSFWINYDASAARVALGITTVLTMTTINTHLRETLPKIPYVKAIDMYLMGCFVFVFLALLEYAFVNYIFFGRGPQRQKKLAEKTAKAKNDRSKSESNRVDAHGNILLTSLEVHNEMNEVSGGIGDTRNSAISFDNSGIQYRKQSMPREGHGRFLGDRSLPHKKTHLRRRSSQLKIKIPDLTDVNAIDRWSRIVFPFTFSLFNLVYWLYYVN
T1 sequence (P18507 40-475): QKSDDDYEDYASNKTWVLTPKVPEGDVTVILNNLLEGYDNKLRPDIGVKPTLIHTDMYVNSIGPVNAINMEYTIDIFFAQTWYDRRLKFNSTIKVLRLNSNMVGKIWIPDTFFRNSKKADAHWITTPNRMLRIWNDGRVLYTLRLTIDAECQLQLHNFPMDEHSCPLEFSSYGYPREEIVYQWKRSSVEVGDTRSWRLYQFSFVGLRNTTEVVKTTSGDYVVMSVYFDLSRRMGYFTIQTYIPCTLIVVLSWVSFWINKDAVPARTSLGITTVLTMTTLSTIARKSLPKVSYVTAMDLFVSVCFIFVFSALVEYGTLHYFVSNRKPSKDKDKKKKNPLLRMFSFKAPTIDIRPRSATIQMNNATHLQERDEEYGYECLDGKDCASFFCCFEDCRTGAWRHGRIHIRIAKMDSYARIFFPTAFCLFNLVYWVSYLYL

Structure (SMILES)	Inverse agonism efficacy(%)	inverse agonism efficacy of the compound/α5IA inverse agonism efficacy
CCNC(=O)c1ccc(COc2nn3c(-c4cc(C)on4)nnc3c3ccccc23)nc1 [Compound 07, N-ethyl-6-(((3-(5-methylisoxazol-3-yl)-[1,2,4]triazolo[3,4-a]phthalazin-6-yl)oxy)methyl)nicotinamide]	−21.1667	1.219
COCCNC(=O)c1ccc(COc2nn3c(-c4cc(C)on4)nnc3c3ccccc23)nc1 [Compound 08, N-(2-methoxyethyl)-6-(((3-(5-methylisoxazol-3-yl)-[1,2,4]triazolo[3,4-a]phthalazin-6-yl)oxy)methyl)nicotinamide]	−35.375	1.902
